# Assay results from PMC11879040, “Advancing systemic toxicity risk assessment: Evaluation of a NAM-based toolbox approach” (Toxicological Sciences, 2024).
# Where two headings read alike, the source gives them in different places.
# Tests used:
# [1] = target: Voltage-dependent L-type Ca2+ channel (dihydropyridine site), CACNA1C (r) (Rattus norvegicus, UniProt P22002); type: binding
# [2] = system: Potassium Voltage-Gated Channel Kv non-selective, KCNQ1 (r); assay: IPP KCNQ1 binding (antagonist radioligand); design: species or system rat; details: control α-dendrotoxin
# [3] = system: Gamma-aminobutyric acid receptor subunit alpha-1 BZD site, GABRA1A (r); type: binding, rat; details: control diazepam
# [4] = system: Sodium channel protein type 5 subunit alpha (site 2), SCN5A (r); type: binding, rat
# [5] = target: T1, Adenosine receptor A2a, ADORA2A (h) (Homo sapiens, UniProt P29274); assay: IPP ADORA2A binding (agonist radioligand); details: control NECA
# T1 construct: purchased Eurofins Cerep (SafetyScreen44-based IPP panel)
# T1 sequence (P29274 whole entry): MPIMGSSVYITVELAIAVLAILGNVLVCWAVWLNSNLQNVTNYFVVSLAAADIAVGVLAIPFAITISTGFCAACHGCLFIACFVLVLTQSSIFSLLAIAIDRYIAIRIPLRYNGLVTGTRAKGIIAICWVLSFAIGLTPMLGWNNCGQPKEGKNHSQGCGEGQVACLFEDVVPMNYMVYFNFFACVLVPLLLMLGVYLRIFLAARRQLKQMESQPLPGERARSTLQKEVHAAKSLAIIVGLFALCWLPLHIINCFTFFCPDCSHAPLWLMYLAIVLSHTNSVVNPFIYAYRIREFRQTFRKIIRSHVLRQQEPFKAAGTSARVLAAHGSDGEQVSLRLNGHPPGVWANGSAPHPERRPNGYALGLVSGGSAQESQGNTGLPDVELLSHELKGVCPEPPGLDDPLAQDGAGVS
# [6] = system: Thyroid hormone receptor alpha, THRA (h); assay: IPP THRA coactivator recruitment (agonist); type: biochemical, human; details: agonist, T3
# Tubulin (r) = assay: IPP Tubulin binding; design: species or system rat; details: ligand/control Colchicine
# HepG2 cells [7] = assay: Cell stress panel (CSP), 24 h, 8 concentrations, BIFROST global PoD; type: cell-based; details: HepG2; cell stress panel PoD
# Method: Compounds were tested using the previously developed cell stress panel ([Hatherell et al. 2020]) and the expanded biomarker panel outlined in Middleton et al. HepG2 cells were treated with all compounds for 24 h across 8 concentrations prior to biomarker analysis. The same plate layout and number of replicates (3 biological and 2 technical) were used as previously for each assay within the panel.
# HepG2 cells [8] = assay: High-throughput transcriptomics (HTTr, TempO-Seq), HepG2, 24 h; type: cell-based, human; details: HepG2; for pod_httr_bifrost PoD: HTTr BIFROST PoD; for podl_path_minbmd PoD: HTTr minimum pathway BMD(L)
# Method: (§1) HepG2, HepaRG, and MCF7 cells were treated with each compound for 24 h across a dose range of 7 concentrations and lysed using TempO-Seq lysis buffer (BioSpyder Technologies, proprietary kit, see [Middleton et al. 2022] for method details). Sequencing was performed using TempO-Seq (BioClavis) version 2 of the human whole transcriptome panel and analyzed as described previously in Middleton et al.
# HepaRG cells = assay: High-throughput transcriptomics (HTTr, TempO-Seq), HepaRG, 24 h; type: cell-based, human; details: HepaRG; for pod_httr_bifrost PoD: HTTr BIFROST PoD; for podl_path_minbmd PoD: HTTr minimum pathway BMD(L)
# Method: as §1
# MCF7 cells = assay: High-throughput transcriptomics (HTTr, TempO-Seq), MCF7, 24 h; type: cell-based, human; details: MCF-7; for pod_httr_bifrost PoD: HTTr BIFROST PoD; for podl_path_minbmd PoD: HTTr minimum pathway BMD(L)
# Method: as §1
# [9] = system: 63 targets with known safety liabilities; assay: In vitro pharmacological profiling (IPP) panel, screening at 10 or 100 µM and dose response, minimum IC50/AC50; type: biochemical; details: lowest AC50 across IPP panel (systemic targets); cell_type -; read-out: ipp_lowest_ac50_systemic PoD
# [10] = system: Glutamate receptor ionotropic NMDA 1 non-selective, GRIN1 (r); details: control CGS 19755
# human = details: cited from earlier work
# [11] = PBK level L2; single value or median; ref [2],[4],[6],[7],[8],[10],[11],[15],[18],[27],[34]; cited from earlier work
# [12] = PBK level L2; taken or scaled from references (median where several); ref [6],[7],[10],[19]; cited from earlier work
# [13] = Assignment of risk classifications to benchmark chemical-exposure scenarios; details: for risk: from table S1
# [14] = target: T2, Estrogen receptor, ER1 (h) (Homo sapiens, UniProt P03372); assay: IPP ER1 coactivator recruitment (agonist); type: biochemical; details: estriol
# T2 construct: purchased Eurofins Cerep (SafetyScreen44-based IPP panel)
# T2 sequence (P03372 1-595): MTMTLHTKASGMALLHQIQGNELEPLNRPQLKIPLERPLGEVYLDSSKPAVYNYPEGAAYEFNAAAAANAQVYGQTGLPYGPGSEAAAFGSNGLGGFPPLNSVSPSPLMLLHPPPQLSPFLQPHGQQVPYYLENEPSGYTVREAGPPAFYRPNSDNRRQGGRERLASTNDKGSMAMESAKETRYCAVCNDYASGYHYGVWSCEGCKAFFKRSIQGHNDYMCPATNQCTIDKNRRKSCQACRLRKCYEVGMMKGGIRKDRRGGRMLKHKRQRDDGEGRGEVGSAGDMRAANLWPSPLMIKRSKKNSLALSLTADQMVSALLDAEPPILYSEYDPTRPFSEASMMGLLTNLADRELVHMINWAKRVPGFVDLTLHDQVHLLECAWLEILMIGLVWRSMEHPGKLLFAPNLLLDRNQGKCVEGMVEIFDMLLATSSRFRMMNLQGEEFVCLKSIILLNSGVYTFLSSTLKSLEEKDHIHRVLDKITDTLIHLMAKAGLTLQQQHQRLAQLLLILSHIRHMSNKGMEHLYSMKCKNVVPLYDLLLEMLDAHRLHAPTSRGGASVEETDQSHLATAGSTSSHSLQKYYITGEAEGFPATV
# [15] = target: T2, Estrogen receptor, ER1 (h); assay: IPP ER1 coactivator recruitment (antagonist); type: biochemical; details: estriol
# [16] = target: Potassium voltage-gated channel subfamily H member 2 hERG, KCNH2 (h) (Homo sapiens, UniProt Q12809); details: [3H] Dofetilide, control Terfenadine
# Sequence of Potassium voltage-gated channel subfamily H member 2 hERG, KCNH2 (h) (Q12809 whole entry): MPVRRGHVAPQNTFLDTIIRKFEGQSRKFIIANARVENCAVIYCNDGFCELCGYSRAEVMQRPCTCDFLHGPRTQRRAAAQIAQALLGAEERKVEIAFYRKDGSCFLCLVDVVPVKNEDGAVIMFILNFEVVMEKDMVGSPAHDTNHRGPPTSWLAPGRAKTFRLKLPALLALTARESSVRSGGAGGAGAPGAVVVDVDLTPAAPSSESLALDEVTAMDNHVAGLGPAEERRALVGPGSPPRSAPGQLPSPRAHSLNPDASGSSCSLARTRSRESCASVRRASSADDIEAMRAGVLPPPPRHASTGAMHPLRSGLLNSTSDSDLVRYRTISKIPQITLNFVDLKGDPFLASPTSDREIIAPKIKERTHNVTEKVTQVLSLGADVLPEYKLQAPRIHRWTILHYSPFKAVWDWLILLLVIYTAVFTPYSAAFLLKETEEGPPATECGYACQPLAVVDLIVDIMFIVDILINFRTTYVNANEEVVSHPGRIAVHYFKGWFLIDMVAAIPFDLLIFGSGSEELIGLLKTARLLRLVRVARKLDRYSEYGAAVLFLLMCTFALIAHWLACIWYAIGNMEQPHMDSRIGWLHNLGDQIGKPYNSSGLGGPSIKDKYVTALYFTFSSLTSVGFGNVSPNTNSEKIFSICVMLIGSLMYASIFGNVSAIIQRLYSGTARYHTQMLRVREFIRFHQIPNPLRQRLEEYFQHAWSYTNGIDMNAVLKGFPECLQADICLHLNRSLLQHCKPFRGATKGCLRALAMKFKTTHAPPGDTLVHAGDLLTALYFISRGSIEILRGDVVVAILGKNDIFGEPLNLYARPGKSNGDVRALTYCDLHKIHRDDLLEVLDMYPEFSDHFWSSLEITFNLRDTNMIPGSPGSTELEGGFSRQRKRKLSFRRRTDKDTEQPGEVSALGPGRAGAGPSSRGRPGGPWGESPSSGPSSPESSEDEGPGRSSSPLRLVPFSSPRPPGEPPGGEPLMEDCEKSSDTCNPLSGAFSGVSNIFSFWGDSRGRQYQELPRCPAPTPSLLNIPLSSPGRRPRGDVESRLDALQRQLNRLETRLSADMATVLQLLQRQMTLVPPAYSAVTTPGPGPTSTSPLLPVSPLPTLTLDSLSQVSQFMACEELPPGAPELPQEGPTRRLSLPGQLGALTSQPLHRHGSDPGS
# [17] = cited from earlier work
# dog = details: 52 weeks, ref ToxRefDB/Paul-Friedman et al. (2020)/regulatory opinions; cited from earlier work
# [18] = human
# rat = details: rat; 7 days; ref ToxRefDB/Paul-Friedman et al. (2020)/regulatory opinions; cited from earlier work
# [19] = 100 uM, * denotes assay interference (2-Amino-6-chloro-4-nitrophenol, HC Red 3)
# [20] = IPP screening at 10 uM, control veratridine
# Sequence of Voltage-dependent L-type Ca2+ channel (dihydropyridine site), CACNA1C (r) (P22002 whole entry): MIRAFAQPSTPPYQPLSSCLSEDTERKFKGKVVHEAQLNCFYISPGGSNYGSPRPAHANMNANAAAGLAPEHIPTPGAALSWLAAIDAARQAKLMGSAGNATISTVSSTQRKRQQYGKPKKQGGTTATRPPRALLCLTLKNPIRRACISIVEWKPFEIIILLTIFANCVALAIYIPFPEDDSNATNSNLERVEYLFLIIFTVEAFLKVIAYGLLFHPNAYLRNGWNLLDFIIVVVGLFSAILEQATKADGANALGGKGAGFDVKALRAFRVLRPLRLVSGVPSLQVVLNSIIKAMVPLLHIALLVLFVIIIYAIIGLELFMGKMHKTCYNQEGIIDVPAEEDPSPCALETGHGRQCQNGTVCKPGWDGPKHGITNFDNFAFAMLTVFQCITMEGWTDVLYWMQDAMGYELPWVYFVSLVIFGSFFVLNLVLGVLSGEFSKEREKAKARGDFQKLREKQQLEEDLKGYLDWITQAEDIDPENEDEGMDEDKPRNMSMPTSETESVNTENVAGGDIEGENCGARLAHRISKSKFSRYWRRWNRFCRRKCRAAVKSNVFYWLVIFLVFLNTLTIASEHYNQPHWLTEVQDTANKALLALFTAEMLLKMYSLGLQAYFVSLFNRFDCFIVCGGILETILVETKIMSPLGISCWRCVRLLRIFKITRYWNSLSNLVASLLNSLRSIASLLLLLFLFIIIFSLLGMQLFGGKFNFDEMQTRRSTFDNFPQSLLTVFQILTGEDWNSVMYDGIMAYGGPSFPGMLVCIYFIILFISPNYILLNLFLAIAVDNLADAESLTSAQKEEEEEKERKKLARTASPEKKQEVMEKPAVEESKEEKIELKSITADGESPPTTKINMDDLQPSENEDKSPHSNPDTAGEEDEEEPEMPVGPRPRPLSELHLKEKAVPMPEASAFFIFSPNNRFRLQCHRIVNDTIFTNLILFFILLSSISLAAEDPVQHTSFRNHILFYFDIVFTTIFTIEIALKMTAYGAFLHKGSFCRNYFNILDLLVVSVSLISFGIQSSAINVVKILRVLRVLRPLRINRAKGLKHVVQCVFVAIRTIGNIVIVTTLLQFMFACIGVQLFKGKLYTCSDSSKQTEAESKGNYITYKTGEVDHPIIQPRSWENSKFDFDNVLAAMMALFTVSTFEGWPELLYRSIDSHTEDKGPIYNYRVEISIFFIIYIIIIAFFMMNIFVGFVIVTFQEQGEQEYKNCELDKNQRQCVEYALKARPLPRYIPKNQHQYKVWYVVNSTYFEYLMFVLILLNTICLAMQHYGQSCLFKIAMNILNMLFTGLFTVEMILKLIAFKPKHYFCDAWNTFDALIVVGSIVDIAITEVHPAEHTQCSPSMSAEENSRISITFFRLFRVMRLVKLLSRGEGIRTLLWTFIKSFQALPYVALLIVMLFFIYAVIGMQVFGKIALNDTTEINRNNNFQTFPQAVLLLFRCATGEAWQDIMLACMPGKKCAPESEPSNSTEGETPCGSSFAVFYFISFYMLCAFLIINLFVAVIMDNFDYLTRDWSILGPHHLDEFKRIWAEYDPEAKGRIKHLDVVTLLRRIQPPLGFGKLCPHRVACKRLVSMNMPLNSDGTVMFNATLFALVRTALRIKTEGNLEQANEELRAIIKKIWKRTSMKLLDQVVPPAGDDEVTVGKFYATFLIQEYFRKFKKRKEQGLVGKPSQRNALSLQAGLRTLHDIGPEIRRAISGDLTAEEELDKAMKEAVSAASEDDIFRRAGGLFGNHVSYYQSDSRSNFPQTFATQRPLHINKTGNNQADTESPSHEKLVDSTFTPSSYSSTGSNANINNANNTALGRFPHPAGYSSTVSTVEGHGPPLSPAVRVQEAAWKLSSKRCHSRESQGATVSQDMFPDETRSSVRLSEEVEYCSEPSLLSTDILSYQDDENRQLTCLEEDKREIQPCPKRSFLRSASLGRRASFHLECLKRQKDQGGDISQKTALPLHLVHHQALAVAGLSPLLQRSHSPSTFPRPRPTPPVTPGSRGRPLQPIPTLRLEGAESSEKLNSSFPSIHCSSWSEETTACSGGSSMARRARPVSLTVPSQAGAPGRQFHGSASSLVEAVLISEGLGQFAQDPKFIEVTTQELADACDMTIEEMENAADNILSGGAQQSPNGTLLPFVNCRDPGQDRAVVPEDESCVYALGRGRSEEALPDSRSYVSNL
Structure (SMILES),Specific binding ([2]; IPP screening at 100 uM) [%],Specific binding ([3]; IPP screening at 100 uM) [%],Specific binding ([5]; IPP screening at 100 uM) [%],"IPP screening %, Coactivator recruitment [6, 19] [%]","IPP screening %, Specific binding (Tubulin (r); 100 uM) [%]",pod_cell_stress PoD (HepG2 cells [7]) [µM],pod_httr_bifrost PoD (HepG2 cells [8]) [µM],podl_path_minbmd PoD (HepG2 cells [8]) [µM],pod_httr_bifrost PoD (HepaRG cells) [µM],podl_path_minbmd PoD (HepaRG cells) [µM],pod_httr_bifrost PoD (MCF7 cells) [µM],podl_path_minbmd PoD (MCF7 cells) [µM],AC50 [9] [µM],Specific binding ([10]; IPP screening at 100 uM) [%],Fup [11] [%],Intrinsic Liver Clearance [12] [L/h],Specific binding ([2]; IPP screening at 10 uM) [%],Specific binding ([3]; IPP screening at 10 uM) [%],"Specific binding [4, 20] [%]",Specific binding ([5]; IPP screening at 10 uM) [%],further results
"CCOC(=O)c1ccc(N)cc1 [Benzocaine, Ethyl 4-aminobenzoate]",3.6,-9.1,36.2,2.0,15.0,47.784,9.489,242.367,103.552,413.121,0.8705,19.4739,6,11.5,36.7,7799.2,–,–,–,–,"Specific binding [1]: 10.5%; Specific binding [4]: -0.8%; adverse event reports related to methaemaglobinemia (human; of the 218 adverse event reports identified by Moore et al, ref [9]): Of the 218 adverse event reports identified by Moore et al, 136 were related to methaemaglobinemia with 2 cases resulting in deaths and 107 resulting in serious events.; Risk Classification ([13]; Dermal 20% in Gel): High risk; risk ([13]; Oral, 22mg/kg is the safety dose, Solution, Exp1): 1"
"CCN(CC)C(=O)c1cccc(C)c1 [DEET, N,N-Diethyl-3-methylbenzamide]",-4.9,8.9,20.5,0.0,-14.0,29.817,16.9912,582.029,24.7921,567.13,67.2542,670.53,53.7,4.4,–,–,–,–,–,–,"Specific binding ([4]; IPP screening at 100 uM, control veratridine): 11.7%; IPP screening %, Coactivator recruitment [14, 19]: 2.0%; IPP screening %, Coactivator recruitment [15, 19]: 0.0%; IPP screening %, Specific binding ([16]; 100 uM): -12.0%; NOAEL ([17]; 2-gen study, alpha-2-u nephropathy not relevant for humans, ref https://doi.org/10.1016/B978-0-12-374367-1.00098-7): Lowest human-relevant NOAEL was from a subchronic study. NOAEL of 25 mkd from 2-gen study appears to be based on alpha-2-u nephropathy which is not relevant for humans (https://doi.org/10.1016/B978-0-12-374367-1.001-7); PoD (NOAEL) ([17]; species '-', 364 days, ref ToxRefDB/Paul-Friedman et al. (2020)/regulatory opinions): 100 mg/kg bw/day; risk ([13]; Dermal, 15%, Sun lotion, Exp1): 0"
"N#CC(CCc1ccc(Cl)cc1)(Cn1cncn1)c1ccccc1 (stereo not drawn) [Fenbuconazole, 4-(4-Chlorophenyl)-2-phenyl-2-[(1H-1,2,4-triazol-1-yl)methyl]butanenitrile]",–,–,–,–,–,2.477,0.5034,16.5577,0.6247,4.705,1.305,15.4204,2.86,–,2,10900,3.0,3.5,100.8,34.0,"Specific binding ([1]; IPP screening at 10 uM, control nitrendipine): 97.8%; IPP screening %, Coactivator recruitment ([6]; 10 uM): 2.0%; IPP screening %, Specific binding (Tubulin (r); 10 uM): -20.0%; Specific binding ([10]; IPP screening at 10 uM): 38.6%; IPP screening %, Specific binding ([16]; 10 uM): 79.9%; PoD (NOAEL) (dog): 0.38 mg/kg bw/day; Risk Classification ([13]; Oral, residue, 0.006 mg/kg bw/day): Low risk; Risk Classification ([13]; Oral, residue, 73% of 0.006 mg/kg bw/day): Low risk; risk ([13]; Oral, 73% ADI of 0.006 mg/kg bw/day, Food residue, Exp3): 0; risk ([13]; Oral, ADI 0.006 mg/kg bw/day, Food residue, Exp2): 0"
"O=CCCCC=O [Glutaraldehyde, Pentanedial]",–,–,–,–,–,–,–,–,–,–,–,–,–,–,–,–,5.2,-5.0,13.2,-3.4,"IPP screening %, Coactivator recruitment ([14]; 10 uM): 2.0%; IPP screening %, Coactivator recruitment ([15]; 10 uM): -9.0%; IPP screening %, Coactivator recruitment ([6]; 10 uM): 3.0%; Specific binding ([10]; IPP screening at 10 uM): -4.1%; IPP screening %, Specific binding ([16]; 10 uM): -1.1%; risk [18]: 0; PoD (NOAEL) (rat): 1 mg/kg bw/day; NOAEL (human; 1 year human study, ref not given): The lowest NOAEL from a rat repeat-dose study. Not there is also a 1 year human study with a NOAEL of 3 mkd."
